Source: US20260248128A1, “INSECT NEUROPEPTIDE ANALOGUES” (Solasta Bio Limited, priority 2021, published 2026)
Blank lines part the entries; values can stand above or below the compound they belong to. Where no end group is shown, it is not given here. [ ]: non-standard residue; d: D form. NMeA = CN[C@@H](C)C(=O)O; Ahx = NCCCCCC(=O)O

How the values were obtained:
[1] = tested on: M. persicae (peach potato/Green Peach Aphid); assay: IRAC leaf dip assay on adult aphids; assay type: in vivo, Myzus persicae; details: for Peptide efficacy compared with endogenous CAPA-3: adult aphids and nymphs, scored 72, 96 and 120 hours
Experimental: Peptide efficacy (2×10^−4 M) was assessed on M. persicae (peach potato/Green Peach Aphid) using IRAC leaf dip assays on adult aphids. Peptides were administered on leaves either in DDH2O or Amino Acid Mix (Sadeghi et al., 2010) to increase uptake via feeding. Insecticide treatment was with Spirotetramat, 2×10^−4 M
Data are from 120 hours post-treatment, indicating % adult lethality (left panel); and number of nymphs per sample (right panel) for each of SB-P-1 (endogenous CAPA-3, N =26 (H2O); 15 (AA)), SB-P-14 (CAPA-3 analogue, N=5); SB-P-15 (CAPA-3 analogue, N=10). Peptide application rates are 2×10^−4 M. Note that nymph values for spirotetramat are 0.
Data are for 120 hours, indicating % adult lethality (left panel); and number of nymphs per sample (right panel). Individual data points are shown, N=5. Peptide application rates are 2×10^−4 M.

Pyrokinin receptor = details: Brown Marmorated Stinkbug, H. halys; Ahn et al., 2020; cited from earlier work
H. halys CAPA receptor = details: data in Ahn et al, 2020; cited from earlier work
[2] = tested on: M. persicae CAPA receptor; assay: activation assay (IP1 assay) for M. persicae CAPA receptor; assay type: cell-based, Myzus persicae; details: initial screen, FIG. 7
[3] = leaf dip, peptide 2×10^−4 M, 120 hours

Compound: CCOC(=O)OC1=C(c2cc(C)ccc2C)C(=O)N[C@]12CC[C@@H](OC)CC2 [spirotetramat, Spirotetramat, reference compound]
number of nymphs per sample ([1]; 120 hours post-treatment, 2×10^−4 M): 0

activation of M. persicae CAPA receptor [2]: do not activate
Compound: H-SDSKNTALWFGPRL-NH2 [SB-P-1]
activation of Pyrokinin receptor (Pyrokinin receptor): activate
activation of H. halys CAPA receptor (H. halys CAPA receptor): does not activate

Compound: Hy-Ahx-SDSKNT[n-me-A]LWFGPRL-[NH2] ([Ahx]SDSKNT[NMeA]LWFGPRL-NH2; N-terminus assumed; SMILES CC(C)C[C@H](NC(=O)[C@H](CCCNC(=N)N)NC(=O)[C@@H]1CCCN1C(=O)CNC(=O)[C@H](Cc1ccccc1)NC(=O)[C@H](Cc1c[nH]c2ccccc12)NC(=O)[C@H](CC(C)C)NC(=O)[C@H](C)N(C)C(=O)[C@@H](NC(=O)[C@H](CC(N)=O)NC(=O)[C@H](CCCCN)NC(=O)[C@H](CO)NC(=O)[C@H](CC(=O)O)NC(=O)[C@H](CO)NC(=O)CCCCCN)[C@@H](C)O)C(N)=O) [SB-P-14]
Peptide efficacy compared with endogenous CAPA-3 ([1]; leaf dip, peptide 2×10^−4 M): did not perform as well as endogenous CAPA-3

activation of M. persicae CAPA receptor [2]: do not activate
Compound: Hy-SDSKNT[n-me-A]LWFGPRL-[nh2] [SB-P-15]
Peptide efficacy compared with endogenous CAPA-3 ([1]; leaf dip, peptide 2×10^−4 M): an improvement on endogenous CAPA-3 efficacy
aphicidal efficacy (adult lethality) [1, 3]: highly effective
nymphicidal efficacy [1, 3]: highly effective
